Data taken from patent US20150011508A1, “COMPOUNDS AND COMPOSITIONS AS C-KIT KINASE INHIBITORS” (priority 2011, published 2015).

Biological target: T1, c-kit (Homo sapiens, UniProt P10721)
T1 construct: human Mo7e cells which endogenously express c-kit; endogenous in cells; host or cells: human Mo7e cells (SCF-dependent promegakaryocytic leukemia line)
Assay: Mo7e cell proliferation assay (SCF dependent proliferation)
Type: cell-based
Settings: Table 1; human Mo7e cells stimulated with human recombinant SCF, 48 h, CellTiter Glo; 1% FBS (footnote)
Method: Compounds of Formula (I) and Formula (II) provided herein were assayed to measure their capacity to inhibit c-kit and PDGFR kinases using the appropriate assay described below: c-Kit inhibition was evaluated using the Mo7e cell proliferation assay, and PDGFR inhibition was evaluated using the Rat A10 cell proliferation assay and the Human TGHA-VSMC cell proliferation assay.
The compounds of Table 1 and Table 2 were tested for inhibition of SCF dependent proliferation using human Mo7e cells which endogenously express c-kit in a 384 well format. […] After 48 hours of incubation at 37° C., cell viability was measured by adding 25 uL of CellTiter Glo (Promega) to the cells and the luminescence was measured by a CLIPR CCD camera (Molecular Devices).
The IC50 value is given as that concentration of the test compound in question that provoke a response halfway between the baseline and maximum responses.

T1 sequence (P10721 26-976): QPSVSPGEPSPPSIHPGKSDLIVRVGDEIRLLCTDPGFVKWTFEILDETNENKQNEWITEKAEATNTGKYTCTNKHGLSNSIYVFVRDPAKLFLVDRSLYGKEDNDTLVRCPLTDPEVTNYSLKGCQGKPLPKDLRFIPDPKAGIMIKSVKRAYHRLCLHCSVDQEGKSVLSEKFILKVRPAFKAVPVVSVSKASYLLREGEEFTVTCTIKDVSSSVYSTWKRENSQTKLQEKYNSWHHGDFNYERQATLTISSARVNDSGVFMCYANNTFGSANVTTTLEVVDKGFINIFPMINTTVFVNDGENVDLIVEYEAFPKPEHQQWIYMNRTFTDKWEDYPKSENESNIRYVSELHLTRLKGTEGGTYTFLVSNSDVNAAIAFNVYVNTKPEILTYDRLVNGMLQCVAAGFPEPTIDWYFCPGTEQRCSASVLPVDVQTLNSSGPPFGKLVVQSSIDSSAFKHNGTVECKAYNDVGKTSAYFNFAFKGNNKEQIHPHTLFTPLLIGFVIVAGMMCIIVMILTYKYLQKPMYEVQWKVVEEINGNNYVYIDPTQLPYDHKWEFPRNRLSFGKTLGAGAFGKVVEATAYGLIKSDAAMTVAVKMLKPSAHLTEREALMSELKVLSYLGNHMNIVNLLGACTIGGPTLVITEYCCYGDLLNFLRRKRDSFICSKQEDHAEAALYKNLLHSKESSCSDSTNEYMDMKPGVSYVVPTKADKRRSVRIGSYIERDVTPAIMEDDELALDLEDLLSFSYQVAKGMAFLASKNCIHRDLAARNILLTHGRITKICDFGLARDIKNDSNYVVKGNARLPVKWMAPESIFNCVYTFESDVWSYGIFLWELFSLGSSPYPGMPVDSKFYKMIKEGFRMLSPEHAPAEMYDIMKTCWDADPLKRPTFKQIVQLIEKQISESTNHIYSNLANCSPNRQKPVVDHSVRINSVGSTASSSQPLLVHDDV

Row | SMILES | IC50 [nM]
1 | COP(=O)(OC)OC(C)(CCc1nc(-c2ccc(C)c(NC(=O)c3cnc4cc(C)ccn34)c2)no1)C(F)(F)F (single isomer, unassigned) [F269] | 50
2 | Cc1nc(-c2ccc(C)c(NC(=O)c3cnc4ccc(-c5c(C)n[nH]c5C)cn34)c2)no1 [F104, 6-(3,5-dimethyl-1H-pyrazol-4-yl)-N-(2-methyl-5-(5-methyl-1,2,4-oxadiazol-3-yl)phenyl)imidazo[1,2-a]pyridine-3-carboxamide] | 9
3 | Cc1ccc(-c2noc(CC[C@](C)(O)C(F)(F)F)n2)cc1NC(=O)c1cnc2cc(F)ccn12 [F86] | 43
4 | Cc1nc(-c2ccc(C)c(NC(=O)c3cnc4ccccn34)c2)no1 [F11] | 86
5 | CCN(Cc1nc(-c2ccc(C)c(NC(=O)c3cnc4ccccn34)c2)no1)C(=O)OC(C)(C)C [F21] | 55
6 | Cc1ccc(-c2noc([C@H](C)NC(=O)OC(C)(C)C)n2)cc1NC(=O)c1cnc2ccccn12 [F13] | 93
7 | Cc1ccc(-c2noc(COCC(F)(F)F)n2)cc1NC(=O)c1cnc2ccccn12 [F39] | 8
8 | Cc1ccc(-c2noc(CC[C@@](C)(O)C(F)(F)F)n2)cc1NC(=O)c1cnc2cc(F)ccn12 [F89] | 41
9 | COCCOCc1nc(-c2ccc(C)c(NC(=O)c3cnc4ccc(C)cn34)c2)no1 [F58] | 90
10 | Cc1nc(C)c(-c2ccc3ncc(C(=O)Nc4cc(-c5noc(COCC(F)(F)F)n5)ccc4C)n3c2)s1 [F91, 6-(2,4-dimethylthiazol-5-yl)-N-(2-methyl-5-(5-((2,2,2-trifluoroethoxy)methyl)-1,2,4-oxadiazol-3-yl)phenyl)imidazo[1,2-a]pyridine-3-carboxamide] | 6
11 | Cc1ccc(-c2noc(CCC(C)(C)O)n2)cc1NC(=O)c1cnc2cc(-c3cnn(C)c3)ccn12 [F63] | 7
12 | Cc1nc(-c2ccc(C)c(NC(=O)c3cnc4ccc(-c5ccccc5C)cn34)c2)no1 [F81, N-(2-methyl-5-(5-methyl-1,2,4-oxadiazol-3-yl)phenyl)-6-(o-tolyl)imidazo[1,2-a]pyridine-3-carboxamide] | 96
13 | CCOC(=O)NCc1nc(-c2ccc(C)c(NC(=O)c3cnc4ccc(F)cn34)c2)no1 [F38] | 47
14 | CCCC(C)c1nc(-c2ccc(C)c(NC(=O)c3cnc4ccc(C)cn34)c2)no1 (centres unmarked) [F59] | 22
15 | Cc1ccc(-c2noc(CCOCC(F)(F)F)n2)cc1NC(=O)c1cnc2ccccn12 [F28] | 7
16 | CCN(Cc1nc(-c2ccc(C)c(NC(=O)c3cnc4ccccn34)c2)no1)S(C)(=O)=O [F22] | 89
17 | COCCOCc1nc(-c2ccc(C)c(NC(=O)c3cnc4ccccn34)c2)no1 [F26] | 59
18 | Cc1ccn2c(C(=O)Nc3cc(-c4noc(CCC(C)(O)C(F)(F)F)n4)ccc3C)cnc2c1 (centres unmarked) [F67, 7-methyl-N-(2-methyl-5-(5-(4,4,4-trifluoro-3-hydroxy-3-methylbutyl)-1,2,4-oxadiazol-3-yl)phenyl)imidazo[1,2-a]pyridine-3-carboxamide] | 16
19 | Cc1nc(-c2ccc(C)c(NC(=O)c3cnc4ccc(-c5c(C)nn(CCN6CCOCC6)c5C)cn34)c2)no1 [F106, 6-(3,5-dimethyl-1-(2-morpholinoethyl)-1H-pyrazol-4-yl)-N-(2-methyl-5-(5-methyl-1,2,4-oxadiazol-3-yl)phenyl)imidazo[1,2-a]pyridine-3-carboxamide] | 24
20 | Cc1nc(-c2ccc(C)c(NC(=O)c3cnc4ccc(-c5ccnc(N)c5)cn34)c2)no1 [F103] | 61
21 | CO[C@H](C)c1nc(-c2ccc(C)c(NC(=O)c3cnc4ccccn34)c2)no1 [F14] | 99
22 | Cc1ccc(-c2noc(CCC#N)n2)cc1NC(=O)c1cnc2ccccn12 [F1] | 78

Now from value to compound:

Row | IC50 [nM] | SMILES
23 | 89 | Cc1nc(-c2ccc(C)c(NC(=O)c3cnc4ccc(-c5nc(C)c(C(N)=O)s5)cn34)c2)no1 [F259, 4-methyl-2-(3-((2-methyl-5-(5-methyl-1,2,4-oxadiazol-3-yl)phenyl)carbamoyl)imidazo[1,2-a]pyridin-6-yl)thiazole-5-carboxamide]
24 | 25 | Cc1ccn2c(C(=O)Nc3cc(-c4noc(CCC(C)(OP(=O)(O)O)C(F)(F)F)n4)ccc3C)cnc2c1 (stereo in doubt) [F270, (R)-1,1,1-trifluoro-2-methyl-4-(3-(4-methyl-3-(7-methylimidazo[1,2-a]pyridine-3-carboxamido)phenyl)-1,2,4-oxadiazol-5-yl)butan-2-yl dihydrogen phosphate]
25 | 11 | Cc1ccc(-c2noc(C(C)OCC(F)(F)F)n2)cc1NC(=O)c1cnc2ccccn12 (centres unmarked) [F266]
26 | 38 | Cc1nc(-c2ccc(C)c(NC(=O)c3cnc4ccc(-c5sc(C(N)=O)nc5C)cn34)c2)no1 [F264, 4-methyl-5-(3-((2-methyl-5-(5-methyl-1,2,4-oxadiazol-3-yl)phenyl)carbamoyl)imidazo[1,2-a]pyridin-6-yl)thiazole-2-carboxamide]

Same assay, conditions: Table 2, values marked *: 20% FBS instead of 1% FBS

Row | IC50 [nM] | SMILES
27 | 716 | COCc1noc(-c2ccc(C)c(NC(=O)c3cnc4ccccn34)c2)n1 [F108]

Same assay, conditions: Table 2; human Mo7e cells stimulated with human recombinant SCF, 48 h, CellTiter Glo; 1% FBS (footnote)

Row | SMILES | IC50 [nM]
28 | Cc1ccc(-c2noc(C(O)C(F)(F)F)n2)cc1NC(=O)c1cnc2ccccn12 (centres unmarked) [F162] | 266
29 | Cc1ccc(-c2noc(C(C)(C)CO)n2)cc1NC(=O)c1cnc2ccccn12 [F109] | 682
30 | COCCCN(Cc1nc(-c2ccc(C)c(NC(=O)c3cnc4ccccn34)c2)no1)C(=O)C(F)(F)F [F151] | 134
31 | Cc1ccc(-c2noc(CNC(=O)CCC(F)(F)F)n2)cc1NC(=O)c1cnc2ccccn12 [F154] | 182
32 | COC(=O)N[C@H](C)Cc1nc(-c2ccc(C)c(NC(=O)c3cnc4ccccn34)c2)no1 [F150] | 196
33 | COCCCc1nc(-c2ccc(F)c(NC(=O)c3cnc4ccccn34)c2)no1 [F139] | 394
34 | Cc1ccc(-c2noc(C[C@@H](C)NS(C)(=O)=O)n2)cc1NC(=O)c1cnc2ccccn12 [F149] | 220
35 | CO[C@@H](C)C(=O)NCc1nc(-c2ccc(C)c(NC(=O)c3cnc4ccccn34)c2)no1 [F133] | 183
36 | Cc1ccc(-c2noc([C@@H](C)N)n2)cc1NC(=O)c1cnc2ccccn12 [F127] | 196
37 | COC(=O)NCc1nc(-c2ccc(C)c(NC(=O)c3cnc4ccccn34)c2)no1 [F128] | 113
38 | COCCOC(=O)NCc1nc(-c2ccc(C)c(NC(=O)c3cnc4ccccn34)c2)no1 [F165] | 512
39 | COCc1nc(-c2ccc(C)c(NC(=O)c3cnc4ccccn34)c2)no1 [F130] | 142
40 | Cc1ccc(-c2noc(CCC(C)(C)O)n2)cc1NC(=O)c1cnc2ccccn12 [F119] | 112
41 | Cc1ccc(-c2noc(CNC(=O)CCOCC(F)(F)F)n2)cc1NC(=O)c1cnc2ccccn12 [F166] | 213
42 | CC(C)(C)OC(=O)NCc1nc(-c2ccc(F)c(NC(=O)c3cnc4ccccn34)c2)no1 [F152] | 207
43 | Cc1ccc(-c2noc([C@@H](C)NC(=O)OC(C)(C)C)n2)cc1NC(=O)c1cnc2ccccn12 [F126] | 102

Next, values leading:

Row | IC50 [nM] | SMILES
44 | 120 | Cc1ccc(-c2noc(C(C)F)n2)cc1NC(=O)c1cnc2ccccn12 (centres unmarked) [F200]
45 | 255 | Cc1ccc(-c2noc(C(C)O)n2)cc1NC(=O)c1cnc2ccccn12 (centres unmarked) [F198]
46 | 120 | Cc1nc(-c2ccc(C)c(NC(=O)c3cnc4ccc(-c5nc(C)c(C(=O)NCCN6CCOCC6)s5)cn34)c2)no1 [F245]
47 | 2460 | Cc1nc(-c2ccc(C)c(NC(=O)c3cnc4ccc(-c5c(C)nn(CC(=O)O)c5C)cn34)c2)no1 [F235]
48 | 156 | CC(=O)OCc1nc(-c2ccc(C)c(NC(=O)c3cnc4ccccn34)c2)no1 [F172]
49 | 5450 | Cc1ccc(-c2noc(CCC(=O)O)n2)cc1NC(=O)c1cnc2ccccn12 [F229]
50 | 394 | CC(C)(O)CCc1nc(-c2ccc(F)c(NC(=O)c3cnc4ccc(-c5cnn(CC(C)(C)O)c5)cn34)c2)no1 [F183]
51 | 209 | Cc1nc(-c2ccc(C)c(NC(=O)c3cnc4ccc(-c5c(C)nn(CC(=O)OC(C)(C)C)c5C)cn34)c2)no1 [F234]
52 | 110 | COCCNc1nc(-c2ccc(C)c(NC(=O)c3cnc4cc(C)ccn34)c2)no1 [F197]
53 | 1800 | Cc1ccc(-c2noc(CCC(C)(C)O)n2)cc1NC(=O)c1cnc2c(N)cccn12 [F246]
54 | 1480 | Cc1nc(-c2ccc(C)c(NC(=O)c3cnc4ccc(C(N)=O)cn34)c2)no1 [F240]
55 | 182 | Cc1ccc(-c2noc(C(CC(F)(F)F)N(C)C)n2)cc1NC(=O)c1cnc2ccccn12 (centres unmarked) [F171]
56 | 223 | Cc1cc(-c2ccc3ncc(C(=O)Nc4cc(-c5noc(C)n5)ccc4C)n3c2)n(C)n1 [F207]
57 | 1060 | Cc1ccc(-c2noc(C(C)(C)N)n2)cc1NC(=O)c1cnc2ccccn12 [F218]
58 | 1190 | Cc1ccc(-c2noc(C[C@@H](C)N)n2)cc1NC(=O)c1cnc2ccccn12 [F219]
59 | 1590 | Cc1ccc(-c2nc(C(C)(C)C)no2)cc1NC(=O)c1cnc2ccccn12 [F225]
60 | 119 | COCCOCc1nc(-c2cc(NC(=O)c3cnc4ccccn34)c(C)cc2C)no1 [F190]
61 | 220 | COC(=O)NCc1nc(-c2ccc(C)c(NC(=O)c3cnc4ccc(C#N)cn34)c2)no1 [F168]
62 | 414 | COCc1n[nH]c(-c2ccc3ncc(C(=O)Nc4cc(-c5noc(C)n5)ccc4C)n3c2)n1 [F196]
63 | 416 | Cc1nc(-c2ccc(C)c(NC(=O)c3cnc4ccc(CCN5CCOCC5C)cn34)c2)no1 (centres unmarked) [F186]
64 | 158 | Cc1ccc(-c2noc(CCC(C)(C)O)n2)cc1NC(=O)c1cnc2ccc(CCN3CCOCC3)cn12 [F184]
65 | 193 | Cc1nc(-c2ccc(C)c(NC(=O)c3cnc4ccc(-c5c(C)nn(CC(=O)NCCN6CCOCC6)c5C)cn34)c2)no1 [F239]
